Where “and” joins values, the source holds several entries; their conditions need not be identical. Equal values may be shown once. Inconclusive results and toxic doses are left out.
System: BDF1 mice, intracerebral B16 melanoma, median survival T/C
Assay: NCI In Vivo Anticancer Drug Screen. Data for tumor model B16 Melanoma (intracerebral) in B6D2F1 (BDF1) mice
Conditions: endpoint: median survival time, higher = longer survival
Protocol: The antitumor activity of compounds was measured in mice bearing transplantable tumors. Survival or tumor size were measured and the results are expressed as the measurement made in the treated group (T) divided by the measurement made in the vehicle treated control group (C). The tumor model used in this assay is B16 Melanoma (intracerebral) in B6D2F1 (BDF1) mice

O=NN(CCF)C(=O)NC1CCCCC1
T/C (dose: 5.1 mg/kg/injection, schedule: Q01DX001 (ip), vehicle: other): 107 % of control | T/C (dose: 10.2 mg/kg/injection, schedule: Q01DX001 (ip), vehicle: other): 112 % of control | T/C (dose: 13.0 mg/kg/injection, schedule: Q01DX001 (ip), vehicle: Klucel (hydroxypropylcellulose) (HPC)): 104 % of control | T/C (dose: 17.8 mg/kg/injection, schedule: Q01DX001 (ip), vehicle: Klucel (hydroxypropylcellulose) (HPC)): 111 % of control | T/C (dose: 21.6 mg/kg/injection, schedule: Q01DX001 (ip), vehicle: Klucel (hydroxypropylcellulose) (HPC)): 174 % of control | T/C (dose: 26.7 mg/kg/injection, schedule: Q01DX001 (ip), vehicle: Klucel (hydroxypropylcellulose) (HPC)): 115 % of control | T/C (dose: 40.0 mg/kg/injection, schedule: Q01DX001 (ip), vehicle: Klucel (hydroxypropylcellulose) (HPC)): 180 % of control | T/C (dose: 43.2 mg/kg/injection, schedule: Q01DX001 (ip), vehicle: other): 180 % of control | T/C (dose: 60.0 mg/kg/injection, schedule: Q01DX001 (ip), vehicle: Klucel (hydroxypropylcellulose) (HPC)): 168 % of control and 269 % of control | T/C (dose: 90.0 mg/kg/injection, schedule: Q01DX001 (ip), vehicle: Klucel (hydroxypropylcellulose) (HPC)): 263 % of control | T/C (dose: 162.8 mg/kg/injection, schedule: Q01DX001 (ip), vehicle: other): 235 % of control

COc1ccc(C(=O)/C(Br)=C/C(=O)O)cc1
T/C (dose: 10.0 mg/kg/injection, schedule: Q01DX005 (ip), vehicle: saline): 91 % of control and 105 % of control | T/C (dose: 20.0 mg/kg/injection, schedule: Q01DX005 (ip), vehicle: saline): 90 % of control and 93 % of control | T/C (dose: 40.0 mg/kg/injection, schedule: Q01DX005 (ip), vehicle: saline): 97 % of control and 99 % of control

CCCCN(C)N=Nc1c(C(N)=O)n[nH]c1C
T/C (dose: 32.0 mg/kg/injection, schedule: Q01DX005 (ip), vehicle: saline with Tween-80): 121 % of control

COc1cc2c(c3c1c(=O)c1ccccc1n3C)C=CC(C)(C)O2
T/C (dose: 16.0 mg/kg/injection, schedule: Q01DX005 (ip), vehicle: Klucel (hydroxypropylcellulose) (HPC)): 121 % of control | T/C (dose: 32.0 mg/kg/injection, schedule: Q01DX005 (ip), vehicle: Klucel (hydroxypropylcellulose) (HPC)): 104 % of control | T/C (dose: 64.0 mg/kg/injection, schedule: Q01DX005 (ip), vehicle: Klucel (hydroxypropylcellulose) (HPC)): 115 % of control

Cc1ncc(CO)c(C)c1O
T/C (dose: 128.0 mg/kg/injection, schedule: Q01DX005 (ip), vehicle: Klucel (hydroxypropylcellulose) (HPC)): 100 % of control and 109 % of control | T/C (dose: 256.0 mg/kg/injection, schedule: Q01DX005 (ip), vehicle: Klucel (hydroxypropylcellulose) (HPC)): 98 % of control and 105 % of control

COc1ccc2c(c1)CCC(c1ccccc1)=C2c1ccc(OCCN2CCCC2)cc1
T/C (dose: 3.0 mg/kg/injection, schedule: Q01DX005 (ip), vehicle: Klucel (hydroxypropylcellulose) (HPC)): 97 % of control | T/C (dose: 6.0 mg/kg/injection, schedule: Q01DX005 (ip), vehicle: Klucel (hydroxypropylcellulose) (HPC)): 97 % of control | T/C (dose: 12.0 mg/kg/injection, schedule: Q01DX005 (ip), vehicle: Klucel (hydroxypropylcellulose) (HPC)): 95 % of control and 105 % of control | T/C (dose: 24.0 mg/kg/injection, schedule: Q01DX005 (ip), vehicle: Klucel (hydroxypropylcellulose) (HPC)): 124 % of control and 96 % of control and 108 % of control | T/C (dose: 48.0 mg/kg/injection, schedule: Q01DX005 (ip), vehicle: Klucel (hydroxypropylcellulose) (HPC)): 92 % of control and 112 % of control | T/C (dose: 96.0 mg/kg/injection, schedule: Q01DX005 (ip), vehicle: Klucel (hydroxypropylcellulose) (HPC)): 100 % of control

CC(=O)NNC(=O)c1ccccn1
T/C (dose: 100.0 mg/kg/injection, schedule: Q01DX005 (ip), vehicle: Klucel (hydroxypropylcellulose) (HPC)): 104 % of control and 108 % of control | T/C (dose: 200.0 mg/kg/injection, schedule: Q01DX005 (ip), vehicle: Klucel (hydroxypropylcellulose) (HPC)): 100 % of control

CN(C)/N=N/c1[nH]ncc1C(N)=O
T/C (dose: 64.0 mg/kg/injection, schedule: Q01DX005 (ip), vehicle: saline with Tween-80): 154 % of control | T/C (dose: 128.0 mg/kg/injection, schedule: Q01DX005 (ip), vehicle: saline with Tween-80): 121 % of control

— PubChem BioAssay AID196 (DTP/NCI, 2004)
